Where a name gives a salt, the structure may show the parent alone. Read-outs that look alike come from different tables or passages of the source.
What was measured:
[1] = target: muscarinic receptors; assay: Radio ligand binding: displacement of the muscarinic agonist 3H-Oxotremorine-M (3H-OXO-M), rat cerebral cortex; parameters: species or system Hooded Lister rats; conditions: 2 nM 3H-OXO-M, rat cerebral cortex membranes, 2 mM magnesium chloride, 37° C., 30 min
[2] = target: muscarinic receptors; assay type: binding, Hooded Lister rats; conditions: 0.27 nM 3H-QNB, rat cerebral cortex membranes, 37° C., 30 min

SMILES	IC50 [1]	IC50 [2]
C(=C1/CN2CCC1C2)/c1nccs1 (racemic) [Example E10, (±) Z 3-([1,3-Thiazol-2-yl]methin)-1-azabicyclo[2.2.1]heptane oxalate salt]	0.165 µM	2.5 µM
C(=C1CN2CCC1C2)c1cnco1 (racemic) [Example E4, (±)E/Z 3-([1,3-Oxazol-5-yl]methin)-1-azabicyclo[2.2.1]heptane oxalate salt]	0.294 µM	27.9 µM
Nc1noc(C=C2CC3CCN(C2)C3)n1 (racemic) [Example E6, (±)E/Z 3-([3-Amino-1,2,4-oxadiazol-5-yl]methin)-1-azabicyclo[3.2.1]octane]	0.52 µM	5.7 µM
Cc1noc(/C=C2\CN3CCC2C3)n1 (racemic) [Example E2, (±) Z 3-([3-Methyl-1,2,4-oxadiazol-5-yl]methin)-1-azabicyclo[2.2.1]heptane oxalate salt]	0.03 µM	1.9 µM
Nc1noc(/C=C2\CN3CCC2C3)n1 (racemic) [Example E1, (±) Z 3-([3-Amino-1,2,4-oxadiazol-5-yl]methin)-1-azabicyclo[2.2.1]heptane]	0.0118 µM	3.2 µM
C(=C1/CN2CCC1C2)/c1ncco1 (racemic) [Example E5, (±) Z 3-([1,3-Oxazol-2-yl]methin)-1-azabicyclo[2.2.1]heptane]	0.0086 µM	1.8 µM

— patent US5470859A (priority 1989, dated 1995)
